The record followed here is the NIST ThermoML archive (doi:10.1021/je700591h).

Numbers after ± are expanded uncertainties.

For the series the following is noted: Crystal.

Consider `C[S+](C)[O-]` [dimethyl sulfoxide], for which the Normal melting temperature came out at 18.51 ± 6 °C.
